Patent US20090221547A1, “Immunosuppressant Compounds and Compositions” (IRM LLC, priority 2005, published 2009)

How the values were obtained:
[1] = target: T1, human EDG-1 (Homo sapiens, UniProt P21453); experiment: EDG-1 (S1P1) GTP [γ-35S] binding assay (SPA), membranes of CHO cells; type: biochemical; conditions: membranes from CHO cells expressing human EDG-1
T1 construct: c-myc (N); expressed in transfected cells; host or cells: CHO cell clones (membrane preparation)
Procedure: (§1) A. In vitro: A scintillation proximity assay (SPA) for measuring GTP [γ-^35S] binding to membranes prepared from CHO cells expressing human EDG/S1P receptors.
EDG-1 (S1P1) GTP [γ-^35S] binding assay: Membrane protein suspensions are prepared from CHO cell clones stably expressing a human EDG-1 N-terminal c-myc tag. Solutions of test compounds ranging from 10 mM to 0.0 nM are prepared in DMSO/50 mM HCl and then diluted into assay buffer (20 mM HEPES, pH7.4, 100 mM NaCl, 10 mM MgCl2, 0.1% fat free BSA). Assay buffer-containing […] is mixed with wheat-germ agglutinin-coated SPA-beads (1 mg/well) followed by the addition of human EDG-1 membrane protein suspension (10 μg/well) and test compound. The bead/membrane/compound assay components are then mixed for 10-15 minutes on a shaker at room temperature. GTP [γ-^35S] (200 pM) and bead/membrane/compound assay mixture are added to individual wells of a 96 well Optiplate™ (final volume 225 μl/well), sealed and incubated at room temperature for 110 to 120 minutes under constant shaking. After centrifugation (2000 rpm, 10 minutes) luminescence is measured with a TopCount™ instrument.
EC50 values are obtained by fitting the GTP [γ-^35S] binding curves (raw data) with the dose response curve-fitting tool of ORIGIN V. 6.1. […]

[2] = system: EDG-3, EDG-5, EDG-6 and EDG-8; experiment: EDG-3, -5, -6 and -8 GTP [γ-35S] binding assays (SPA), CHO or RH7777 membranes; type: biochemical, human
From the text: as §1
EC50 values are obtained by fitting the GTP [γ-^35S] binding curves (raw data) with the dose response curve-fitting tool of ORIGIN V. 6.1. Basal binding (no compound) and the highest stimulation of GTP [γ-^35S] binding achieved by an agonist are used as the fitting range. Seven different concentrations are used to generate a concentration response curve (using two or three data points per concentration).
Concentrations of EDG receptor expressing membranes range between 13-19 μg per well. […] For example, 5-[4-(2′-fluoro-2-trifluoromethyl-biphenyl-4-yloxymethyl)-phenyl]-pyridine-2-carboxylic acid has an EC50 of 0.9 nM in the above assay and is at least 500 fold selective for EDG-1 compared to one or more of the other receptors including EDG-3, EDG-5, EDG-6 and EDG-8.

[3] = system: peripheral blood lymphocytes; experiment: Blood lymphocyte depletion, measurement of circulating lymphocytes; type: in vivo; conditions: Rattus norvegicus, Lewis rats, oral gavage 0.01-5 mg/kg, blood 6 and 48 hours after administration, read-out: ED50, effective dose required displaying 50% of blood lymphocyte depletion
Procedure: C. In vivo: Screening Assays for Measurement of Blood Lymphocyte Depletion
Measurements of circulating lymphocytes: Compounds are dissolved in DMSO and PEG300 and diluted to obtain a final concentration of 2% DMSO and 2% PEG300 (v/v, final concentration). Lewis rats are administered compound solution orally by gavages at 0.01-5 mg/kg under short isoflurane anesthesia.
Blood is collected from the retro-orbital sinus 6 and 48 hours after drug administration under short isoflurane anesthesia. Whole blood samples are subjected to hematology analysis. Peripheral lymphocyte counts are determined using an automated analyzer. Subpopulations of peripheral blood lymphocytes are stained by fluorochrome-conjugated specific antibodies and analyzed using a fluorescent activating cell sorter (Facscalibur). Two to three rats are used to assess the lymphocyte depletion activity of each compound screened. The result is an ED50, which is defined as the effective dose required displaying 50% of blood lymphocyte depletion.

T1 sequence (P21453 whole entry): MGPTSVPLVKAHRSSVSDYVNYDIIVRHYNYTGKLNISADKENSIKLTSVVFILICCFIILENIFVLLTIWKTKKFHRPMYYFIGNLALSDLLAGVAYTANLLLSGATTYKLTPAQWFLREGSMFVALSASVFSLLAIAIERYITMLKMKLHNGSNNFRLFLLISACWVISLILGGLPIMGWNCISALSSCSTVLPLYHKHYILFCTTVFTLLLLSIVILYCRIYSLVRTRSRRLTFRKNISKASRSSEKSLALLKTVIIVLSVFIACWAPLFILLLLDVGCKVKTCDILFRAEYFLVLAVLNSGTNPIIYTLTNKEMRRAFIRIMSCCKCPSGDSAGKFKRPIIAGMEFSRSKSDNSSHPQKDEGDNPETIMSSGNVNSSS

Question: For `O=C(O)c1ccc(-c2ccc(COc3ccc(-c4ccccc4F)c(C(F)(F)F)c3)cc2)cn1` [Example 1, 5-[4-(2′-Fluoro-2-trifluoromethyl-biphenyl-4-yloxymethyl)-phenyl]-pyridine-2-carboxylic acid], which EC50 [1] is on record?
Answer: 0.9 nM

Question: And the “fold selective for EDG-1 compared to one or more of the other receptors including EDG-3, EDG-5, EDG-6 and EDG-8” value [2]?
Answer: at least 500 fold

Question: What about the ED50 [3] of the same molecule?
Answer: 0.3 mg/kg
